This is an account of results in patent US9333194B2, “Use of ansamycin antibiotics and method of screening novel angiogenesis inhibitor” (Japan Science & Technology Agency, priority 2002, dated 2016).

For this assay, the system named is human retinal microvascular endothelial cells. The assay is described as follows: Angiogenesis-inhibiting signals (mRNA quantification by real-time quantitative PCR). The format is cell-based. The following applies: various concentrations; for angiogenesis-inhibiting signals (changes of gene expression levels): four hours incubation, FIG. 6; for mRNA amount of c-myc, integrin-αv, integrin-β3: FIG. 6 legend. As to the method:
Human retinal microvascular endothelial cells were rendered to grow exponentially in the presence of serum/growth factors/angiogenesis-promoting factors, and various concentrations of rifampicin, rifamycin SV and 3-formyl rifamycin were added. After four hours-incubation, RNA was extracted and subjected to mRNA quantification of various genes using aforementioned LightCycler-based highly sensitive real-time quantitative PCR. A, B and C represent the quantification results of c-myc gene; D, E and F represent those of integrin-αv gene; G, H and I represent those of integrin-β3 gene. Further, A, D and G indicate the changes of mRNA levels after adding rifampicin; B, E and H indicate those after adding rifamycin SV; C, F and I indicate those after adding 3-formyl rifamycin.

`CO[C@H]1/C=C/O[C@@]2(C)Oc3c(C)c(O)c4c(O)c(c(C=O)c(O)c4c3C2=O)NC(=O)/C(C)=C\C=C\[C@H](C)[C@H](O)[C@@H](C)[C@@H](O)[C@@H](C)[C@H](OC(C)=O)[C@@H]1C` [3-formyl rifamycin]: the “angiogenesis-inhibiting signals (changes of gene expression levels)” value is given as “exhibit similar activity potently” and the “mRNA amount of c-myc, integrin-αv, integrin-β3” value is “inhibited in a concentration-dependent manner”.

Regarding `CO[C@H]1/C=C/O[C@@]2(C)Oc3c(C)c([O-])c4c(O)c(cc(O)c4c3C2=O)NC(=O)/C(C)=C\C=C\[C@H](C)[C@H](O)[C@@H](C)[C@@H](O)[C@@H](C)[C@H](OC(C)=O)[C@@H]1C.[Na+]` [rifamycin SV], the “angiogenesis-inhibiting signals (changes of gene expression levels)” value is “exhibit similar activity potently” and the “mRNA amount of c-myc, integrin-αv, integrin-β3” value was “inhibited in a concentration-dependent manner”.
